From ChEMBL document CHEMBL1201862, “PubChem BioAssay data set” (2004)
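Growth conditions: 96-well plates. Treatment: test compound, 48 hours, 5 concentrations. Analysis: linear interpolation between bracketing concentrations; unreached endpoints set to highest concentration. At the GI50, growth is halved.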 Calls of active or inactive are those of the source. No stated cut-off is given here; in the data, active = GI50 up to about 1.1 µM and inactive = higher.

Columns and labels:
Assay in all cases: NCI-60 cell line screen, 48 h
HCC 2998 = test system: HCC 2998
HOP-62 = test system: HOP-62
HOP-92 = test system: HOP-92
LOX IMVI = test system: LOX IMVI
MCF7 = test system: MCF7
MOLT-4 = test system: MOLT-4
NCI-H226 = test system: NCI-H226
NCI-H460 = test system: NCI-H460
NCI/ADR-RES = test system: NCI/ADR-RES
OVCAR-3 = test system: OVCAR-3
OVCAR-8 = test system: OVCAR-8
PC-3 = test system: PC-3
RXF 393 = test system: RXF 393
SF-268 = test system: SF-268
SK-MEL-5 = test system: SK-MEL-5
SNB-19 = test system: SNB-19
SW-620 = test system: SW-620
TK-10 = test system: TK-10
UACC-257 = test system: UACC-257
SK-MEL-2 = test system: SK-MEL-2

Structure (SMILES)	GI50 (HCC 2998)	GI50 (HOP-62)	GI50 (HOP-92)	GI50 (LOX IMVI)	GI50 (MCF7)	GI50 (MOLT-4)	GI50 (NCI-H226)	GI50 (NCI-H460)	GI50 (NCI/ADR-RES)	GI50 (OVCAR-3)	GI50 (OVCAR-8)	GI50 (PC-3)	GI50 (RXF 393)	GI50 (SF-268)	GI50 (SK-MEL-5)	GI50 (SNB-19)	GI50 (SW-620)	GI50 (TK-10)	GI50 (UACC-257)	GI50 (SK-MEL-2)
CC(CO)CCNc1ncnc2c1ncn2CCC(=O)OC(C)(C)C (stereo unspecified)	> 100 µM (inactive)	> 100 µM (inactive)	> 100 µM (inactive)	> 100 µM (inactive)	> 100 µM (inactive)	> 100 µM (inactive)	> 100 µM (inactive)	> 100 µM (inactive)	> 100 µM (inactive)	> 100 µM (inactive)	> 100 µM (inactive)	> 100 µM (inactive)	> 100 µM (inactive)	> 100 µM (inactive)	> 100 µM (inactive)	> 100 µM (inactive)	> 100 µM (inactive)	> 100 µM (inactive)	> 100 µM (inactive)	–
O=C(O)CCC(=O)OC1N=C(c2ccccc2Cl)c2cc([N+](=O)[O-])ccc2NC1=O (stereo unspecified)	> 100 µM (inactive)	70.6 µM (inactive)	69.2 µM (inactive)	85.7 µM (inactive)	33 µM (inactive)	–	–	> 100 µM (inactive)	> 100 µM (inactive)	32.7 µM (inactive)	39 µM (inactive)	23.6 µM (inactive)	47.3 µM (inactive)	67.5 µM (inactive)	–	> 100 µM (inactive)	26.1 µM (inactive)	86.7 µM (inactive)	> 100 µM (inactive)	> 100 µM (inactive)
COC(=O)C1CC23C4=C(CCC41)CCC1CN4CC(C)C(CC(OC(C)=O)C12COC(C)=O)C43O (stereo unspecified)	> 100 µM (inactive)	> 100 µM (inactive)	> 100 µM (inactive)	> 100 µM (inactive)	> 100 µM (inactive)	68.4 µM (inactive)	–	> 100 µM (inactive)	> 100 µM (inactive)	> 100 µM (inactive)	> 100 µM (inactive)	> 100 µM (inactive)	> 100 µM (inactive)	> 100 µM (inactive)	> 100 µM (inactive)	> 100 µM (inactive)	> 100 µM (inactive)	> 100 µM (inactive)	> 100 µM (inactive)	> 100 µM (inactive)
N#CC(Cc1ccccc1)N(CCC1=CCCCC1)C(c1ccccc1)c1ccccc1 (stereo unspecified)	32 µM (inactive)	> 100 µM (inactive)	28.1 µM (inactive)	–	42.4 µM (inactive)	66.8 µM (inactive)	–	33.5 µM (inactive)	> 100 µM (inactive)	> 100 µM (inactive)	> 100 µM (inactive)	73.6 µM (inactive)	27.9 µM (inactive)	> 100 µM (inactive)	28 µM (inactive)	> 100 µM (inactive)	38.9 µM (inactive)	> 100 µM (inactive)	43 µM (inactive)	> 100 µM (inactive)
Cn1c(-c2cccs2)cc(-c2ccsc2)c1-c1cccs1	> 100 µM (inactive)	> 100 µM (inactive)	> 100 µM (inactive)	–	5.97 µM (inactive)	55.7 µM (inactive)	> 100 µM (inactive)	48.1 µM (inactive)	> 100 µM (inactive)	76.7 µM (inactive)	> 100 µM (inactive)	> 100 µM (inactive)	> 100 µM (inactive)	> 100 µM (inactive)	> 10 µM (inactive)	> 100 µM (inactive)	> 100 µM (inactive)	> 100 µM (inactive)	52.2 µM (inactive)	–
Cc1nc2c(nc1C)-c1c(c3c(n1Cc1ccccc1)C(=O)CCC3)C(=O)C2=O	2.86 µM (inactive)	8.79 µM (inactive)	3.4 µM (inactive)	3.14 µM (inactive)	2.29 µM (inactive)	2.9 µM (inactive)	21.4 µM (inactive)	4.62 µM (inactive)	3.84 µM (inactive)	2.38 µM (inactive)	3.09 µM (inactive)	5.27 µM (inactive)	–	2.21 µM (inactive)	6.34 µM (inactive)	7.96 µM (inactive)	3.07 µM (inactive)	18.8 µM (inactive)	6.37 µM (inactive)	5.08 µM (inactive)
C[N+]1(C)CCCC(C#N)(c2ccccc2)CC1 (stereo unspecified)	> 100 µM (inactive)	> 100 µM (inactive)	> 100 µM (inactive)	–	> 100 µM (inactive)	> 100 µM (inactive)	–	> 100 µM (inactive)	> 100 µM (inactive)	–	> 100 µM (inactive)	> 100 µM (inactive)	> 100 µM (inactive)	> 100 µM (inactive)	> 100 µM (inactive)	> 100 µM (inactive)	> 100 µM (inactive)	> 100 µM (inactive)	> 100 µM (inactive)	–
Cc1nc(C)c(N2CCN(CN)CC2)c(O)n1	> 100 µM (inactive)	> 100 µM (inactive)	> 100 µM (inactive)	> 100 µM (inactive)	> 100 µM (inactive)	> 100 µM (inactive)	> 100 µM (inactive)	> 100 µM (inactive)	> 100 µM (inactive)	> 100 µM (inactive)	> 100 µM (inactive)	> 100 µM (inactive)	> 100 µM (inactive)	> 100 µM (inactive)	> 100 µM (inactive)	> 100 µM (inactive)	> 100 µM (inactive)	> 100 µM (inactive)	> 100 µM (inactive)	–
CC(C)(C)OC(=O)N(CCCCNC(=O)OCc1ccccc1)CCCNC(=O)OCc1ccccc1	98.6 µM (inactive)	> 100 µM (inactive)	23.4 µM (inactive)	–	33.3 µM (inactive)	3.27 µM (inactive)	> 100 µM (inactive)	38.2 µM (inactive)	8.59 µM (inactive)	> 100 µM (inactive)	32.4 µM (inactive)	10.7 µM (inactive)	30 µM (inactive)	> 100 µM (inactive)	5.93 µM (inactive)	> 100 µM (inactive)	71 µM (inactive)	> 100 µM (inactive)	26.4 µM (inactive)	55.7 µM (inactive)
CC1CC(=O)N(N(C)C)C2(C#N)C(=O)N=C(N)C12C#N (stereo unspecified)	> 100 µM (inactive)	> 100 µM (inactive)	> 100 µM (inactive)	> 100 µM (inactive)	> 100 µM (inactive)	36.7 µM (inactive)	–	–	> 100 µM (inactive)	–	> 100 µM (inactive)	> 100 µM (inactive)	> 100 µM (inactive)	> 100 µM (inactive)	> 100 µM (inactive)	> 100 µM (inactive)	35.4 µM (inactive)	> 100 µM (inactive)	> 100 µM (inactive)	> 100 µM (inactive)
Cc1c2c(nc3ccccc13)C(=O)c1cccnc1C2=O	7.62 µM (inactive)	20.6 µM (inactive)	65.5 µM (inactive)	10.7 µM (inactive)	4.89 µM (inactive)	9.71 µM (inactive)	18.9 µM (inactive)	1.96 µM (inactive)	27.2 µM (inactive)	11.7 µM (inactive)	16.8 µM (inactive)	24.3 µM (inactive)	63.5 µM (inactive)	25.2 µM (inactive)	0.381 µM (active)	16.3 µM (inactive)	12.1 µM (inactive)	> 100 µM (inactive)	6.97 µM (inactive)	–
COc1c(C(=O)NCCN(CCNC(=O)c2cccc(-c3cccc(C(=O)N(C)C)c3OC)c2OC)CCNC(=O)c2cccc(-c3cccc(C(=O)N(C)C)c3OC)c2OC)cccc1-c1cccc(C(=O)N(C)C)c1OC	17.2 µM (inactive)	97.7 µM (inactive)	14.4 µM (inactive)	18.1 µM (inactive)	18.8 µM (inactive)	24.7 µM (inactive)	17.8 µM (inactive)	94.4 µM (inactive)	> 100 µM (inactive)	16.1 µM (inactive)	> 100 µM (inactive)	38.4 µM (inactive)	26.5 µM (inactive)	15.3 µM (inactive)	30.5 µM (inactive)	56.5 µM (inactive)	38.1 µM (inactive)	–	29 µM (inactive)	–
CC(C)C1OC(=O)/C=C/C=C/C=C/C=C/C=C/CC(O)C(C)C(O)CC(O)CC(O)CC(O)CC(O)CC(O)CC(O)/C=C/C1C (stereo unspecified)	> 100 µM (inactive)	> 100 µM (inactive)	> 100 µM (inactive)	–	> 100 µM (inactive)	> 100 µM (inactive)	–	> 100 µM (inactive)	> 100 µM (inactive)	> 100 µM (inactive)	> 100 µM (inactive)	> 100 µM (inactive)	–	> 100 µM (inactive)	–	> 100 µM (inactive)	> 100 µM (inactive)	> 100 µM (inactive)	> 100 µM (inactive)	> 100 µM (inactive)
Cn1ccnc1SC(F)(F)c1nc2ccccc2o1	> 100 µM (inactive)	> 100 µM (inactive)	> 100 µM (inactive)	–	> 100 µM (inactive)	> 100 µM (inactive)	> 100 µM (inactive)	> 100 µM (inactive)	> 100 µM (inactive)	> 100 µM (inactive)	> 100 µM (inactive)	> 100 µM (inactive)	> 100 µM (inactive)	> 100 µM (inactive)	> 100 µM (inactive)	–	> 100 µM (inactive)	> 100 µM (inactive)	> 100 µM (inactive)	> 100 µM (inactive)
N#Cc1c(O)cc(=O)n2c1[nH]c1ccccc12	> 100 µM (inactive)	> 100 µM (inactive)	> 100 µM (inactive)	–	> 100 µM (inactive)	> 100 µM (inactive)	> 100 µM (inactive)	> 100 µM (inactive)	> 100 µM (inactive)	> 100 µM (inactive)	> 100 µM (inactive)	> 100 µM (inactive)	> 100 µM (inactive)	> 100 µM (inactive)	> 100 µM (inactive)	> 100 µM (inactive)	> 100 µM (inactive)	> 100 µM (inactive)	> 100 µM (inactive)	> 100 µM (inactive)
